From PMC7515946, “Targeting of Perforin Inhibitor into the Brain Parenchyma Via a Prodrug Approach Can Decrease Oxidative Stress and Neuroinflammation and Improve Cell Survival” (Molecular Neurobiology, 2020)

Test system: mouse primary astrocytes
Assay: Intracellular unbound concentrations in astrocytes (RED dialysis, Kp,uu,cell)
Type: in vitro ADME
Details: below 500 nM concentrations
Procedure: The non-specific binding of compounds (100 μM) was determined in astrocyte homogenate by using the Rapid Equilibrium Dialysis (RED) device (Thermo Fisher Scientific, Inc., Waltham, MA, USA). Briefly, the astrocyte cell suspension (10 × 10^6 cells/mL) was homogenized with HBSS by the SoniPerp 150 Plus disintegrator (MSE Ltd., London, UK) (2 s × 3). The studied compound was mixed with 100 μL of cell homogenate and added to the reaction chamber. A 350-μL HBSS buffer was added to the buffer chamber. The dialysis plate was incubated at 37 °C for 4 h with shaking. Fifty microliters of samples were taken from the reaction and buffer chambers and equal size of the buffer or blank homogenate were added, respectively, to yield identical matrices. The proteins were precipitated by adding 100 μL of ice-cold ACN (including the selected internal standard; see above), and the supernatants were collected for LC-MS analysis (see above) after centrifugation at 12,000 × g for 10 min. The unbound drug fraction (fu,cell) was calculated by dividing concentration in the buffer chamber by concentration in the reaction chamber and taking into account the effect of homogenate dilution factor (D = 45 for 10 × 10^6 cells/mL cell suspension according to their weight of the cells) as described earlier.
The compound concentration ratios in astrocytes (Kp) was determined at 0.01–1.0 μM concentrations by comparing the cellular uptake amount (nmol) in cell lysates (0.1 M NaOH) per astrocyte cell volume (0.05810^−15 L/cell for 10 × 10^4 cells/well) to the concentrations (nM) detected from the surrounding buffer (HBSS) collected before cell lysing as described previously. The unbound drug concentration ratio (Kp,uu) was then calculated by multiplying the drug concentration ratio (Kp) by unbound drug fraction (fu,cell).

Question: With `O=C1OCc2cc(-c3ccc(-c4ccc(CO)cc4)s3)ccc21` [PFI] as the compound, how does the “Detection in astrocyte cell lysates” value read?
Answer: not detected
